Source: ChEMBL document CHEMBL4145514, “Unexplored antifungal activity of linear battacin lipopeptides against planktonic and mature biofilms of C. albicans” (Eur J Med Chem, 2018)
≈ marks a conversion by molar mass, not a printed value. Values belong to the compound of their own block, whether it stands above or below them. Calls of active or inactive are those of the source. The calls are words filed in the database; no cut-off is given here. Square brackets hold non-standard residues; d marks the D form. Peptide text beside a SMILES is read from it. * marks the point of attachment. ξ: configuration not given here. Hexanoyl(4ξ-Me) = CCC(C)CCC(=O)*; dDab = NCC[C@@H](N)C(=O)O; Dab = NCC[C@H](N)C(=O)O

Assays:
Candida albicans [1] = experiment: Antifungal activity against Candida albicans SC5314 after 48 hrs; type: functional; details: SC5314, 48 h
Candida albicans [2] = experiment: Synergistic antifungal activity against Candida albicans SC5314 after 48 hrs in presence of 400 nmol AmB; type: functional; details: SC5314, 48 h
Candida albicans [3] = experiment: Synergistic antifungal activity against Candida albicans SC5314 assessed as FIC index after 48 hrs in presence of 400 nmol AmB; type: functional
Candida albicans [4] = experiment: Synergistic antifungal activity against Candida albicans SC5314 after 48 hrs in presence of 800 nmol AmB; type: functional; details: SC5314, 48 h
Candida albicans [5] = experiment: Synergistic antifungal activity against Candida albicans SC5314 assessed as FIC index after 48 hrs in presence of 800 nmol AmB; type: functional
Candida albicans [6] = experiment: Ratio of MIC for Candida albicans SC5314 to MIC for Candida albicans SC5314 in presence of 400 nmol AmB; type: functional
Candida albicans [7] = experiment: Ratio of MIC for Candida albicans SC5314 to MIC for Candida albicans SC5314 in presence of 800 nmol AmB; type: functional
Candida albicans [8] = experiment: Antibiofilm activity against Candida albicans SC5314 incubated for overnight by XTT assay; type: functional
Candida albicans [9] = experiment: Induction of eradication of 24 hrs old preformed Candida albicans SC5314 biofilm after 24 to 48 hrs by XTT assay; type: functional
Candida albicans [10] = experiment: Induction of eradication of 48 hrs old preformed Candida albicans SC5314 biofilm at 62.5 uM after 24 to 48 hrs by XTT assay; type: functional, organism-based
[11] = Haemolytic activity in mouse RBC at 1 mM incubated for 1 hr relative to control; type: ADME, cell-based, Erythrocyte; details: mouse red blood cells (erythrocytes), read-out: Activity
Candida albicans [12] = experiment: Induction of morphological changes in Candida albicans SC5314 assessed as formation of distorted shape cells at MIC after 45 mins by Uranyl acetate/Lead citrate staining based transmission electron microscopic analysis; type: functional, organism-based
Candida albicans [13] = experiment: Induction of morphological changes in Candida albicans SC5314 assessed as formation of abnormal curvature of cell membranes at MIC after 45 mins by Uranyl acetate/Lead citrate staining based transmission electron microscopic analysis; type: functional, organism-based
Candida albicans [14] = experiment: Induction of morphological changes in Candida albicans SC5314 assessed as disruption of fungal cell walls at 10 times MIC after 45 mins by Uranyl acetate/Lead citrate staining based transmission electron microscopic analysis; type: functional, organism-based
Candida albicans [15] = experiment: Induction of morphological changes in Candida albicans SC5314 assessed as disruption of fungal cell membranes at 10 times MIC after 45 mins by Uranyl acetate/Lead citrate staining based transmission electron microscopic analysis; type: functional, organism-based
Candida albicans [16] = experiment: Induction of morphological changes in Candida albicans SC5314 assessed as necrosis of cytoplasm at 10 times MIC after 45 mins by Uranyl acetate/Lead citrate staining based transmission electron microscopic analysis; type: functional, organism-based
Candida albicans [17] = experiment: Induction of ROS generation in Candida albicans SC5314 after 24 to 48 hrs by DCF-DA staining based fluorescence assay; type: functional, organism-based
Candida albicans [18] = experiment: Induction of ROS generation in Candida albicans SC5314 at 0.2 to 100 uM after 24 to 48 hrs in presence of ascorbic acid by DCF-DA staining based fluorescence assay; type: functional, organism-based
Candida albicans [19] = experiment: Ratio of MBEC50 for 24 hrs old preformed Candida albicans SC5314 biofilm to MIC for Candida albicans SC5314; type: functional
Candida albicans [20] = experiment: Induction of eradication of 48 hrs old preformed Candida albicans SC5314 biofilm up to 125 uM after 24 to 48 hrs by XTT assay; type: functional, organism-based
[21] = Haemolytic activity in mouse RBC at 6 uM incubated for 1 hr relative to control; type: ADME, cell-based, Erythrocyte; details: mouse red blood cells (erythrocytes), read-out: Activity
Candida albicans [22] = experiment: Induction of morphological changes in Candida albicans SC5314 assessed as disruption of fungal cell walls at 0.5 to 10 times MIC after 45 mins by Uranyl acetate/Lead citrate staining based transmission electron microscopic analysis; type: functional, organism-based
Candida albicans [23] = experiment: Induction of morphological changes in Candida albicans SC5314 assessed as disruption of fungal cell membranes at 0.5 to 10 times MIC after 45 mins by Uranyl acetate/Lead citrate staining based transmission electron microscopic analysis; type: functional, organism-based
Candida albicans [24] = experiment: Induction of morphological changes in Candida albicans SC5314 assessed as necrosis of cytoplasm at 0.5 to 10 times MIC after 45 mins by Uranyl acetate/Lead citrate staining based transmission electron microscopic analysis; type: functional, organism-based
Candida albicans [25] = experiment: Potency index, ratio of MIC for polymyxin B to compound MIC for antifungal activity against Candida albicans SC5314; type: functional
Lipid bilayer = experiment: Disruption of phosphatidylcholine/ phosphatidylinositol/phosphatidylethanolamine membrane at 200 uM by colorimetric assay

MIC (Candida albicans [1]): 6.25 µM (≈ 17.2 µg/mL)
MIC (Candida albicans [2]): 1.56 µM
MIC (Candida albicans [4]): 0.78 µM
Structure (SMILES): CCC(C)CCC(=O)N[C@H](CCN)C(=O)N[C@@H](CCN)C(=O)N[C@@H](CCN)C(=O)N[C@@H](CC(C)C)C(=O)N[C@H](Cc1ccccc1)C(=O)N[C@@H](CCN)C(=O)N[C@@H](CCN)C(=O)N[C@@H](CC(C)C)C(=O)N[C@H](CCN)C(=O)N[C@@H](CCN)C(=O)N[C@@H](CCN)C(=O)N[C@@H](CC(C)C)C(=O)N[C@H](Cc1ccccc1)C(=O)N[C@@H](CCN)C(=O)N[C@@H](CCN)C(=O)N[C@@H](CC(C)C)C(=O)N[C@H](CCN)C(=O)N[C@@H](CCN)C(=O)N[C@@H](CCN)C(=O)N[C@@H](CC(C)C)C(=O)N[C@H](Cc1ccccc1)C(=O)N[C@@H](CCN)C(=O)N[C@@H](CCN)C(=O)N[C@@H](CC(C)C)C(N)=O (some centres not stated)
fractional inhibitory concentration index (FICI) (Candida albicans [3]): 1.25
fractional inhibitory concentration index (FICI) (Candida albicans [5]): 0.62
Ratio (Candida albicans [6]): 4
Ratio (Candida albicans [7]): 8 - 32
MBIC50 (Candida albicans [8]): 6.25 µM
MBEC50 (Candida albicans [9]): 25 µM
Activity (Candida albicans [10]): Active
hemolysis at 1 h, 1000 µM [11]: 21%
Activity (Candida albicans [12]): Active
Activity (Candida albicans [13]): Active
Activity (Candida albicans [14]): Active
Activity (Candida albicans [15]): Active
Activity (Candida albicans [16]): Active
Activity (Candida albicans [17]): Dose-dependent effect
Activity (Candida albicans [18]): inactive
Ratio (Candida albicans [19]): 4

MIC (Candida albicans [1]): > 100 µM
Structure (SMILES): CC(C)C[C@H](NC(=O)[C@H](CCN)NC(=O)[C@H](CCN)NC(=O)[C@@H](Cc1ccccc1)NC(=O)[C@H](CC(C)C)NC(=O)[C@H](CCN)NC(=O)[C@H](CCN)NC(=O)[C@H](N)CCN)C(N)=O (H-[dDab][Dab][Dab]L[dF][Dab][Dab]L-NH2)

MIC (Candida albicans [1]): > 100 µM
Structure (SMILES): CCC(C)CCC(=O)N[C@H](CCCCN)C(=O)N[C@@H](CCCCN)C(=O)N[C@@H](CCCCN)C(=O)N[C@@H](CC(C)C)C(=O)N[C@H](Cc1ccccc1)C(=O)N[C@@H](CCCCN)C(=O)N[C@@H](CCCCN)C(=O)N[C@@H](CC(C)C)C(N)=O (some centres not stated)

MIC (Candida albicans [1]): 1.56 µM (≈ 1.44 µg/mL)
Structure (SMILES): C[C@@H]1[C@H](O)[C@@H](C)/C=C/C=C/C=C/C=C/C=C/C=C/C=C/[C@H](O[C@@H]2O[C@H](C)[C@@H](O)[C@H](N)[C@@H]2O)C[C@@H]2O[C@](O)(C[C@@H](O)C[C@@H](O)[C@H](O)CC[C@@H](O)C[C@@H](O)CC(=O)O[C@H]1C)C[C@H](O)[C@H]2C(=O)O [AMPHOTERICIN B]
MBIC50 (Candida albicans [8]): 0.78 µM
MBEC50 (Candida albicans [9]): 6.25 µM
Activity (Candida albicans [20]): inactive
hemolysis at 1 h, 6 µM [21]: 50%
Activity (Candida albicans [22]): Active
Activity (Candida albicans [23]): Active
Activity (Candida albicans [24]): Active

MIC (Candida albicans [1]): 25 µM (≈ 26.1 µg/mL)
Structure (SMILES): CCC(C)CCC(=O)N[C@H](CCN)C(=O)N[C@@H](CCN)C(=O)N[C@@H](CCN)C(=O)N[C@@H](CC(C)C)C(=O)N[C@H](Cc1c[nH]c2ccccc12)C(=O)N[C@@H](CCN)C(=O)N[C@@H](CCN)C(=O)N[C@@H](CC(C)C)C(N)=O (some centres not stated)

MIC (Candida albicans [1]): 50 µM (≈ 50.2 µg/mL)
MIC (Candida albicans [2]): 12.5 µM
MIC (Candida albicans [4]): 1.56 µM
Structure (SMILES): CCC(C)CCC(=O)N[C@H](CCN)C(=O)N[C@@H](CCN)C(=O)N[C@@H](CCN)C(=O)N[C@@H](CC(C)C)C(=O)N[C@H](Cc1ccccc1)C(=O)N[C@@H](CCN)C(=O)N[C@@H](CCN)C(=O)N[C@@H](CC(C)C)C(N)=O (stereo partly drawn) ({Hexanoyl(4ξ-Me)}-[dDab][Dab][Dab]L[dF][Dab][Dab]L-NH2)
Ratio (Candida albicans [25]): 2
fractional inhibitory concentration index (FICI) (Candida albicans [3]): 8.26
fractional inhibitory concentration index (FICI) (Candida albicans [5]): 1.03
Ratio (Candida albicans [6]): 4
Ratio (Candida albicans [7]): 8 - 32

MIC (Candida albicans [1]): 12.5 µM (≈ 13.9 µg/mL)
Structure (SMILES): CC(C)C[C@H](NC(=O)[C@H](CCN)NC(=O)[C@H](CCN)NC(=O)[C@@H](Cc1ccccc1)NC(=O)[C@H](CC(C)C)NC(=O)[C@H](CCN)NC(=O)[C@H](CCN)NC(=O)[C@@H](CCN)NC(=O)OCC1c2ccccc2-c2ccccc21)C(N)=O

MIC (Candida albicans [1]): > 100 µM
Structure (SMILES): CCC(C)CCC(=O)N[C@H](CCN)C(=O)N[C@@H](CCN)C(=O)N[C@@H](CC(C)C)C(=O)N[C@H](Cc1ccccc1)C(=O)N[C@@H](CCN)C(N)=O (some centres not stated) ({Hexanoyl(4ξ-Me)}-[dDab][Dab]L[dF][Dab]-NH2)

MIC (Candida albicans [1]): 100 µM (≈ 98.9 µg/mL)
Activity (Lipid bilayer): inactive
Structure (SMILES): CCCCCC(=O)N[C@H](CCN)C(=O)N[C@@H](CCN)C(=O)N[C@@H](CCN)C(=O)N[C@@H](CC(C)C)C(=O)N[C@H](Cc1ccccc1)C(=O)N[C@@H](CCN)C(=O)N[C@@H](CCN)C(=O)N[C@@H](CC(C)C)C(N)=O
